Active and inactive are the calls of the source. The rule behind the calls is not given here. Some results are limits rather than exact numbers.

Assay [1] can be described thus: Inhibition of LIN28A (16 to 187 residues) (unknown origin) expressed in Escherichia coli BL21(DE3)/mouse let-7 interaction at 75 uM incubated for 15 mins in presence of Cy-3-fluorophore labeled RNA by electrophoretic mobility shift assay relative to control. A general note: In EMSA bound probe runs differently from free probe, usually more slowly.
Assay [2] addresses T1, Protein lin-28 homolog A (Homo sapiens) (UniProt Q9H9Z2).
T1 sequence (whole entry): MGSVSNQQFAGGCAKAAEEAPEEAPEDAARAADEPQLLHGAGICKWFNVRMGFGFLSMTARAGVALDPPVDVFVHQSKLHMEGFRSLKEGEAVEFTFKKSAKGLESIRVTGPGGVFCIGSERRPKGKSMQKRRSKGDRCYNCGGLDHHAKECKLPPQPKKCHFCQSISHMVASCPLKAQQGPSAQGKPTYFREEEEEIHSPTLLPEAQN
Description: Inhibition of recombinant LIN28A CSD (16 to 126 residues) (unknown origin) assessed as increase in thermal stability at 75 uM incubated for 45 mins by nano differential scanning fluorimetry analysis. A general note: Differential scanning fluorimetry follows unfolding on heating by fluorescence.

Assay [3] in a line: Inhibition of LIN28A (16 to 187 residues) (unknown origin) expressed in Escherichia coli BL21(DE3)/mouse let-7 interaction incubated for 15 mins in presence of Cy-3-fluorophore labeled RNA by electrophoretic mobility shift assay.
The test system of assay [4] is let-7i miRNA. Description: Inhibition of let-7i miRNA biogenesis in human JAR cells assessed as fold increase in mature […] at 5 to 20 uM incubated for 24 hrs by qPCR analysis. The settings on record: dose 5-20 µM. The class given is functional, cell-based.
The species named for a further assay is Homo sapiens. Description: Inhibition of LIN28B (24 to 111 residues) (unknown origin) expressed in Escherichia coli BL21(DE3)/mouse let-7 interaction incubated for 15 mins in presence of Cy-3-fluorophore labeled RNA by electrophoretic mobility shift assay. The following applies: dose 2.3-150 µM.
Assay [5] deals with let-7i miRNA. Description: Inhibition of let-7i miRNA biogenesis in human JAR cells incubated for 24 hrs by qPCR analysis. The class given is functional, cell-based. The settings on record: dose 5-20 µM. In general terms: Quantitative PCR measures a nucleic acid by following its amplification.
The next assay relates to JAR. Description: Inhibition of let-7d miRNA biogenesis in human JAR cells incubated for 24 hrs by qPCR analysis. The class given is functional, cell-based. The following applies: dose 5-20 µM.
A short description of assay [6]: Inhibition of let-7d miRNA biogenesis in human JAR cells assessed as fold increase in mature […] at 5 to 20 uM incubated for 24 hrs by qPCR analysis. Type of assay: functional. The following applies: dose 5-20 µM.
Assay [7] concerns the target T1, Protein lin-28 homolog A (Homo sapiens). Description: Binding affinity to recombinant LIN28A CSD (16 to 126 residues) (unknown origin) by biolayer interferometry analysis. The following applies: dose 1.56-100 µM.

What is called inhibition is the drop in the measured response relative to a control, in per cent. As for `COc1ccc(C(=O)C2=C(O)C(=O)N(c3cccc(-c4ccccc4)c3)C2c2ccc([N+](=O)[O-])cc2)cc1OC` (centres undefined), the inhibition result in assay [1] was “inactive”.
Broadly, the ΔTm is the change in melting temperature against a reference sample. As to `Cn1nnc2cc(C3C(C(=O)c4ccccc4)=C(O)C(=O)N3c3ccc(O)c(C(=O)O)c3)ccc21` (centres undefined), the ΔTm in assay [2] is below 0.5 °C.
With `Cc1ccc(C(=O)C2=C(O)C(=O)N(c3ccc(O)c(C(=O)O)c3)C2c2ccc([N+](=O)[O-])cc2)cc1` (centres undefined), the inhibition in [1] came out at 65.6%.
In the case of `O=C(C1=C(O)C(=O)N(c2cccc([N+](=O)[O-])c2)[C@@H]1c1ccc([N+](=O)[O-])cc1)c1ccccc1`, the inhibition result in assay [1] is “inactive”.
Consider `O=C1C(=O)C2(CCCC2=O)C(c2ccccc2)N1c1ccccc1` (centres undefined), for which, in assay [1], the inhibition result is “inactive”.
The same measure, in the same setting: with `O=C(O)c1cc(N2C(=O)C(O)=C(Cc3ccccc3)[C@H]2c2ccc([N+](=O)[O-])cc2)ccc1O` the entry was “inactive”; with `O=C(O)c1cc(N2C(=O)C(O)=C(c3nccs3)C2c2ccc([N+](=O)[O-])cc2)ccc1O` (centres undefined), 64.8%; with `O=C(C1=C(O)C(=O)N(c2cccc([N+](=O)[O-])c2)[C@H]1c1ccc([N+](=O)[O-])cc1)c1ccccc1`, “inactive”.
Same read-out and setting: with `O=C1C(=O)C2(CCCC2=O)C(c2ccc([N+](=O)[O-])cc2)N1c1ccc2oc3ccccc3c2c1` (centres undefined) the entry was “inactive”.
A word on the IC50: it is the concentration needed to halve the response being measured. Take `O=C(C1=C(O)C(=O)N(c2cccc(-c3ccccc3)c2)[C@@H]1c1ccc([N+](=O)[O-])cc1)c1ccccc1`: the IC50 in assay [3] turned out to be 37 µM.
Take `NC1=C(C(=O)c2ccccc2)[C@@H](c2ccc([N+](=O)[O-])cc2)N(c2ccc(O)c(C(=O)O)c2)C1=O`: the inhibition result in [1] is “inactive”.
Still for that read-out and setting: under `O=C(C1=C(O)C(=O)N(c2ccc(O)c(C(=O)O)c2)[C@H]1c1ccc([N+](=O)[O-])cc1)c1ccc(Cl)cc1` stands “inactive”; under `O=C(C1=C(O)C(=O)N(c2ccc(O)c(C(=O)O)c2)[C@@H]1c1ccc([N+](=O)[O-])cc1)c1ccc(Cl)cc1`, “inactive”; under `O=C(C1=C(O)C(=O)N(c2ccc(O)c(C(=O)O)c2)C1c1ccc([N+](=O)[O-])cc1)c1ccccn1` (centres undefined), 106%.
For `Nc1ccc(C2C(C(=O)c3ccccc3)=C(O)C(=O)N2c2ccc(O)c(C(=O)O)c2)cc1` (centres undefined), the IC50 in assay [3] stood at 5 µM.
For `CS(=O)(=O)c1ccc(C(=O)C2=C(O)C(=O)N(c3cccc(-c4ccccc4)c3)C2c2ccc([N+](=O)[O-])cc2)cc1` (centres undefined), in assay [1], the inhibition result was “inactive”.
With `O=C1C(=O)C2(CCCC2=O)C(c2ccc([N+](=O)[O-])cc2)N1c1ccc2c(c1)oc1ccccc12` (centres undefined), the inhibition result in assay [1] is “inactive”.
The same measure, in the same setting: with `O=C1C(=O)C2(CCCC2=O)C(c2ccc([N+](=O)[O-])cc2)N1c1cccc(-c2ccccc2)c1` (centres undefined) the entry was “inactive”.
For the compound `O=C(C1=C(O)C(=O)N(c2cccc(-c3ccccc3)c2)C1c1ccc([N+](=O)[O-])cc1)C1CC1` (centres undefined), the inhibition entry in [1] is “inactive”.
Take `O=C(O)c1cc(N2C(=O)c3nn(Cc4ccccc4)c(-c4ccccc4)c3C2c2ccc([N+](=O)[O-])cc2)ccc1O` (centres undefined): in assay [1], the inhibition entry was “inactive”.
As for `O=C(C1=C(O)C(=O)N(c2cccc(-c3ccccc3)c2)C1c1ccc([N+](=O)[O-])cc1)c1ccccc1` (racemic), the fold change (FC) (in the assay with let-7i miRNA [4]; in [6]) was 2 throughout. In addition, the inhibition result in the assay filed under Homo sapiens was “Dose-Dependent Effect”; in assay [1], 84%. Also, the Activity entry (in the assay on let-7i miRNA [5]; with JAR; in [7]) was “Dose-Dependent Effect” throughout.
As to `O=C1C(=O)C2(CCCCC2=O)C(c2ccc([N+](=O)[O-])cc2)N1c1cccc(-c2ccccc2)c1` (centres undefined), the inhibition result in [1] is “inactive”.
Still for that read-out and setting: with `O=C1C(=O)C2(CCCCC2=O)C(c2ccccc2)N1c1ccccc1` (centres undefined) the entry was “inactive”; with `O=C(O)c1cc(N2C(=O)C(O)=C(Cc3ccccc3)[C@@H]2c2ccc([N+](=O)[O-])cc2)ccc1O`, “inactive”.
Turning to `O=C(C1=C(O)C(=O)N(CCCc2ccccc2)C1c1ccc([N+](=O)[O-])cc1)c1ccccc1` (centres undefined), in [3], the IC50 stood at 5 µM.
`N=C1CC=CC=C1C1=C(N)C(=O)N(c2ccc(O)c(C(=O)O)c2)[C@@H]1c1ccc([N+](=O)[O-])cc1`: the inhibition entry in assay [1] is “inactive”.
Same read-out and setting: under `O=C(C1=C(O)C(=O)N(c2cccc(-c3ccccc3)c2)C1c1ccc([N+](=O)[O-])cc1)c1ccc(F)cc1O` (centres undefined) stands “inactive”; under `O=C(O)c1cc(N2C(=O)c3c(c(-c4ccccc4)nn3Cc3ccccc3)C2c2ccc([N+](=O)[O-])cc2)ccc1O` (centres undefined), “inactive”.

Values taken from ChEMBL document CHEMBL5390296, “N-Biphenyl Pyrrolinones and Dibenzofurans as RNA-Binding Protein LIN28 Inhibitors Disrupting the LIN28-Let-7 Interaction” (ACS Med Chem Lett, 2023).
